According to ChEMBL document CHEMBL4482313, “Method and compounds for inhibition of cell death” (2012):
Calls of active or inactive are those of the source. The calls are words filed in the database; no cut-off is given here.

Legend:
[1] = target: T1, Serine protease HTRA2, mitochondrial (Homo sapiens) (UniProt O43464)
T1 sequence (whole entry): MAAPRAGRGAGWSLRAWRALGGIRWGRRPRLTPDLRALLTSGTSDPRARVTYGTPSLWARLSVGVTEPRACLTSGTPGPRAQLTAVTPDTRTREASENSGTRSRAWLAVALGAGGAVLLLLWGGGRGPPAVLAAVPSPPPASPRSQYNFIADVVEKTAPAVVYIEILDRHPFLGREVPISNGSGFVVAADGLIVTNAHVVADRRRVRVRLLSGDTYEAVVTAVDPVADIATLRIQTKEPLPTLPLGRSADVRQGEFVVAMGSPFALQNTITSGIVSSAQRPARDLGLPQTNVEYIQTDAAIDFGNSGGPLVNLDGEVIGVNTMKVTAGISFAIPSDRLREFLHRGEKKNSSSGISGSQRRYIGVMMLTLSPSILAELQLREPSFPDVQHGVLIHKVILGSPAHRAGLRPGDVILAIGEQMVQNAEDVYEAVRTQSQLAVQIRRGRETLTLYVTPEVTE

[2] = target: T1, Serine protease HTRA2, mitochondrial (Homo sapiens); assay: Inhibition of MBP-fused Omi/HtrA2 (134 to 458 residues) (unknown origin) expressed in TB1 Escherichia coli at 20 to 100 uM pre-incubated for 15 mins before FITC-labeled dephosphorylated casein substrate addition and measured every 5 mins for 30 mins by fluorescence assay
[3] = target: T1, Serine protease HTRA2, mitochondrial (Homo sapiens); assay: Inhibition of MBP-fused Omi/HtrA2 (134 to 458 residues) (unknown origin) expressed in TB1 Escherichia coli at 20 uM pre-incubated for 15 mins before FITC-labeled dephosphorylated casein substrate addition and measured every 5 mins for 30 mins by fluorescence assay relative to control
[4] = target: T1, Serine protease HTRA2, mitochondrial (Homo sapiens); assay: Irreversible inhibition of MBP-fused Omi/HtrA2 (134 to 458 residues) (unknown origin) expressed in TB1 Escherichia coli at 20 to 100 uM pre-incubated for 40 mins to 1 hr before FITC-labeled dephosphorylated casein substrate addition and measured every 5 mins for 30 mins by fluorescence assay
[5] = target: T1, Serine protease HTRA2, mitochondrial (Homo sapiens); assay: Inhibition of MBP-fused Omi/HtrA2 (134 to 458 residues) (unknown origin) expressed in TB1 Escherichia coli at 10 uM pre-incubated for 15 mins before higher 2 times FITC-labeled dephosphorylated casein substrate addition and measured every 5 mins for 30 mins by fluorescence assay
[6] = target: T1, Serine protease HTRA2, mitochondrial (Homo sapiens); assay: Inhibition of His-tagged Omi/HtrA2 (134 to 458 residues) (unknown origin) expressed in TB1 Escherichia coli at 10 to 100 uM pre-incubated for 10 mins before un-labeled beta-casein substrate addition and measured after 30 mins by Coomassie blue staining based SDS-PAGE analysis
[7] = target: T1, Serine protease HTRA2, mitochondrial (Homo sapiens); assay: Inhibition of His-tagged Omi/HtrA2 (134 to 458 residues) (unknown origin) expressed in TB1 Escherichia coli at 80 uM pre-incubated for 10 mins before un-labeled beta-casein substrate addition and measured after 30 mins by Coomassie blue staining based SDS-PAGE analysis
[8] = target: T1, Serine protease HTRA2, mitochondrial (Homo sapiens); assay: Inhibition of His-tagged Omi/HtrA2 (134 to 458 residues) (unknown origin) expressed in TB1 Escherichia coli at 10 to 50 uM pre-incubated for 15 mins before FITC-labeled dephosphorylated casein substrate addition and measured every 5 mins for 30 mins by fluorescence assay
[9] = target: Serine protease HTRA1 (Homo sapiens) (UniProt Q92743); assay: Inhibition of His-tagged L56/HtrA1 (140 to 480 residues) (unknown origin) expressed in TB1 Escherichia coli at 10 to 50 uM pre-incubated for 15 mins before FITC-labeled dephosphorylated casein substrate addition and measured every 5 mins for 30 mins by fluorescence assay
Sequence of Serine protease HTRA1 (Homo sapiens) (Q92743 whole entry, the tested form may be a part): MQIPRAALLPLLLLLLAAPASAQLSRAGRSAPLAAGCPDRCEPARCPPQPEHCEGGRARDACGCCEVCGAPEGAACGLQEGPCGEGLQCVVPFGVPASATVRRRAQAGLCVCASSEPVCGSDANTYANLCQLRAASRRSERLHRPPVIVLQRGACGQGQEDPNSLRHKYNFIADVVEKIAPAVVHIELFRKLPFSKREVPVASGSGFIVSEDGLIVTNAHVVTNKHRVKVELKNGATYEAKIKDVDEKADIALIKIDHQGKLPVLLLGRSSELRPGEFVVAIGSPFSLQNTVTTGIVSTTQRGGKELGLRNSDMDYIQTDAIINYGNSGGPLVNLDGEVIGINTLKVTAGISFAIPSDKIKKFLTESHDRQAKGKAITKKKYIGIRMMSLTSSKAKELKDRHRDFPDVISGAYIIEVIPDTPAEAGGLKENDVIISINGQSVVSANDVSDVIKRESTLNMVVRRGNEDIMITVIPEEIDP

[10] = Inhibition of canine F10a using fluorogenic substrate incubated for 20 mins by fluorescence based assay; parameters: species or system Canis lupus familiaris
[11] = Inhibition of bovine trypsin incubated for 20 mins by fluorescence based assay; parameters: species or system Bos taurus
Fibroblast [12] = type: cell-based; conditions: mouse, 36 h, 25 µM
Fibroblast [13] = type: cell-based; conditions: mouse, 36 h
[14] = Drug localization in cytoplasm of human HeLa cells at 20 to 50 uM incubated for 2 hrs by confocal laser-scanning microscopy; type: ADME, subcellular
Fibroblast [15] = type: cell-based; conditions: mouse, 36 h, 25 µM; remark: listed apart in the source
Canis lupus familiaris = species on record: Canis lupus familiaris; assay: Inhibition of cisplatin-induced apoptosis in dog MPT cells at 20 to 50 uM pre-incubated for 20 mins before cisplatin challenge for 6 hrs by annexin-V staining based flow cytometry; type: functional, cell-based

SMILES | inhibition [1] [%] | inhibition [2] | inhibition [3] [%] | inhibition [4] | inhibition [5] | inhibition [6] | inhibition [7] [%] | inhibition [8] | inhibition [9] | IC50 [10] [µM] | IC50 [11] [µM] | Activity (Fibroblast [12]) | Activity (Fibroblast [13]) | Drug uptake [14] | Activity (Fibroblast [15]) | inhibition (Canis lupus familiaris)
Cc1cccc([N+](=O)[O-])c1-c1ccc(C=C2C(=O)N(c3ccccc3)C(=S)N(c3ccccc3)C2=O)o1 | < 40 | Active | > 78 | inactive | inactive | Dose-dependent effect | 100 | inactive | Active | 360 to 430 | > 500 | Non-Toxic | Non-Toxic | Active | Non-Toxic | Dose-dependent effect
COc1ccc(-c2ccc(C=C3C(=O)N(c4ccccc4)C(=S)N(c4ccccc4)C3=O)o2)cc1Cl | – | Active | – | inactive | – | – | – | – | – | – | – | – | – | – | – | –
O=C(O)c1cccc(-c2ccc(C=C3C(=O)N(c4ccccc4)C(=S)N(c4ccccc4)C3=O)o2)c1 | – | Active | – | inactive | – | – | – | – | – | – | – | – | – | – | – | –
Cc1ccc([N+](=O)[O-])cc1-c1ccc(C=C2C(=O)N(c3ccccc3)C(=S)N(c3ccccc3)C2=O)o1 | – | Active | 58 | inactive | – | – | – | – | – | – | – | – | – | – | – | –
